Like-named read-outs stand apart in the source and are kept apart here.
How the values were obtained:
Type in all cases: cell-based
[1] = molecular target: Ba/F3-FGFR1-transfected cells (Homo sapiens, UniProt P11362); assay: Ba/F3-FGFR1 (minus IL3) cellular proliferation assay, Alamar Blue; settings: for BAF3-FGFR 1 (MIN IL3) 384 well pIC50: minus IL3, 384 well
Protocol: (§1) Ba/F3-FGFR1 (Minus IL3 or Plus IL3) (Cellular Proliferation Assay)
Cells were put in an incubator at 37° C. and 5% CO2. After 24 hours, 10 μl of Alamar Blue solution (0.5 mM K3Fe(CN)6, 0.5 mM KaFe(CN)6, 0.15 mM Resazurin and 100 mM Phosphate Buffer) was added to the wells, incubated for 4 hours at 37° C. and 5% CO2 before RFU's (Relative Fluorescence Units) (ex. 540 nm., em. 590 nm.) were measured in a flurorescence plate reader. […]
(§2) In a 96 well plate, 180 μl cell culture medium (phenol red free RPMI-1640, 10% FBS, 2 mM L-Glutamine and 50 μg/ml Gentamycin) containing 10000 cells per well of Ba/F3-FGFR1-transfected cells were pipette and 20 μl of compound dilution in DMSO was added. Cells were put in an incubator at 37° C. and 5% CO2. After 24 hours, 40 μl of Alamar Blue solution (0.5 mM K3Fe(CN)6, 0.5 mM KaFe(CN)6, 0.15 mM Resazurin and 100 mM Phosphate Buffer) was added to the wells, incubated for 4 hours at 37° C. and 5% CO2 before RFU's (Relative Fluorescence Units) (ex. 540 nm., em. 590 nm.) were measured in a flurorescence plate reader.

[2] = system: Ba/F3-FGFR1-transfected cells in the presence of 10 ng/ml murine IL3; assay: Ba/F3-FGFR1 (plus IL3) cellular proliferation counterscreen, Alamar Blue; settings: Mus musculus
Protocol: as §1
as §2, with “a 384” for “a 96”, “plate, 100 nl of compound dilution in DMSO was sprayed before adding 50” for “plate, 180”, “containing 20000” for “containing 10000”, “Ba/F3-FGFR1-transfected cells.” for “Ba/F3-FGFR1-transfected cells were pipette and 20 μl of compound dilution in DMSO was added.”, “hours, 10” for “hours, 40”
(§3) As a counterscreen the same experiment was performed in the presence of 10 ng/ml murine IL3.
as §2

[3] = system: Ba/F3-FGFR3-transfected cells in the presence of 10 ng/ml murine IL3; assay: Ba/F3-FGFR3 (plus IL3) cellular proliferation counterscreen, Alamar Blue; settings: Mus musculus
Protocol: Ba/F3-FGFR3 (Minus IL3 or Plus IL3) (Cellular Proliferation Assay)
as §2, with “a 384” for “a 96”, “plate, 100 nl of compound dilution in DMSO was sprayed before adding 50” for “plate, 180”, “containing 20000” for “containing 10000”, “of Ba/F3-FGFR3-transfected cells.” for “of Ba/F3-FGFR1-transfected cells were pipette and 20 μl of compound dilution in DMSO was added.”, “hours, 10” for “hours, 40”
as §3
as §2, with “Ba/F3-FGFR3-transfected” for “Ba/F3-FGFR1-transfected”

[4] = system: Ba/F3-Flt3-transfected cells in the presence of 10 ng/ml murine IL3; assay: Ba/F3-Flt3 (plus IL3) cellular proliferation counterscreen, Alamar Blue; settings: Mus musculus, read-out: BAF3-FLT3 (PLUS IL3) 384 well pIC50 (converted)
Protocol: Ba/F3-Flt3 (Minus IL3 or Plus IL3) (Cellular Proliferation Assay)
as §2, with “a 384” for “a 96”, “plate, 100 nl of compound dilution in DMSO was sprayed before adding 50” for “plate, 180”, “containing 20000” for “containing 10000”, “of Ba/F3-Flt3-transfected cells.” for “of Ba/F3-FGFR1-transfected cells were pipette and 20 μl of compound dilution in DMSO was added.”, “hours, 10” for “hours, 40”
as §3
as §2, with “Ba/F3-Flt3-transfected” for “Ba/F3-FGFR1-transfected”

[5] = plus IL3, 384 well, read-out: BAF3-FGFR 1 (PLUS IL3) 384 well pIC50 (converted)
[6] = plus 10 ng/ml murine IL3, 384 well, read-out: BAF3-FGFR 3 (PLUS IL3) 384 well pIC50 (converted)
[7] = plus IL3, 96 well, read-out: BAF3-FGFR 3 (PLUS IL3) 96 well pIC50 (converted)

Ba/F3-FGFR1-transfected cells, sequence (P11362 whole entry, change not shown): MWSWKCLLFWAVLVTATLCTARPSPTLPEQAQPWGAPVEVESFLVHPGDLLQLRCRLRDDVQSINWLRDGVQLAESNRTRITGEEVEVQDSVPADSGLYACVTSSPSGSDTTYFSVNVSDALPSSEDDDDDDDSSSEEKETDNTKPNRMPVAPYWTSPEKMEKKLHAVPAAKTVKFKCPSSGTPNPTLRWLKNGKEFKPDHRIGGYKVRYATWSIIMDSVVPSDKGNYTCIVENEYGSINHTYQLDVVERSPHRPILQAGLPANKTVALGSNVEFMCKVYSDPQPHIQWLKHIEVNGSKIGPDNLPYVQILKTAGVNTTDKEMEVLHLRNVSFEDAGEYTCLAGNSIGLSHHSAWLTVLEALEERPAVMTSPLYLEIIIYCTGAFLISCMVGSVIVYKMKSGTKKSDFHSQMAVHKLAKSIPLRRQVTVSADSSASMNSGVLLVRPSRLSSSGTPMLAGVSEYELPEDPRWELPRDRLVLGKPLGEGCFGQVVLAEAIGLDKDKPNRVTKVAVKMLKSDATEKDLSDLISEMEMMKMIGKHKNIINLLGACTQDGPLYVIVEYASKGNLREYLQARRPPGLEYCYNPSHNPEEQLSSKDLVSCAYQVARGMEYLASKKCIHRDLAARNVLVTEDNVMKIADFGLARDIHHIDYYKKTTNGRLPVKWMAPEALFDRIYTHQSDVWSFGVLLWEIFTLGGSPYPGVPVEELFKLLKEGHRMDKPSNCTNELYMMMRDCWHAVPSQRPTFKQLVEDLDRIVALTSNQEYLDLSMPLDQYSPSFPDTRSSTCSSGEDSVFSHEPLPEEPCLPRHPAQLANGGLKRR

SMILES | BAF3-FGFR 1 (MIN IL3) 384 well pIC50 [1] | IC50 [2, 5] | IC50 [3, 6] | IC50 ([4]; plus 10 ng/ml murine IL3) | IC50 [3, 7] | IC50 ([3]; plus IL3, 384 well, read-out: BAF3-FGFR 3 (PLUS IL3) 384 well pIC50 (converted)) | IC50 ([4]; plus IL3, 384 well) | BAF3-FGFR 1 (MIN IL3) 96 well pIC50 ([1]; minus IL3, 96 well) | IC50 ([2]; plus IL3, 96 well, read-out: BAF3-FGFR 1 (PLUS IL3) 96 well pIC50 (converted))
COc1cc(OC)cc(N(CCO)c2ccc3ncc(-c4ccc(N5CCNCC5)nc4)nc3c2)c1 [Compound 165] | 6.56 | 6.61 µM | > 10 µM | ~5.75 µM | – | – | – | – | –
COc1cc(OC)cc(N(CC2CC2)c2ccc3ncc(N4CCOCC4)nc3c2)c1 [Compound 63] | <5 | > 10 µM | – | – | > 10 µM | > 10 µM | > 10 µM | – | –
COc1cc(OC)cc(N(CCN)c2ccc3ncc(-c4ccn(C)c4)nc3c2)c1 [Compound 79] | 6.9 | > 10 µM | > 10 µM | > 10 µM | – | – | – | – | –
COc1cc(OC)cc(N(CC2CC2)c2ccc3ncc(-c4ccnc(N5CCOCC5)c4)nc3c2)c1 [Compound 90] | – | – | – | – | > 10 µM | – | – | 5.06 | > 10 µM
COc1cc(OC)cc(N(CCNC(C)C)c2ccc3ncc(C(=O)N4CCN(C)CC4)nc3c2)c1 [Compound 179] | 5.62 | > 10 µM | > 10 µM | > 10 µM | – | – | – | – | –
COc1cc(OC)cc(N(CCO)c2ccc3ncc(-c4ccc(N5CCN(C(=O)OC(C)(C)C)CC5)cc4)nc3c2)c1 [Compound 156] | 5.7 | 8.91 µM | > 10 µM | > 10 µM | – | – | – | – | –
COc1cc(OC)cc(N(CCNC(C)C)c2ccc3ncc(C(=O)NCCCN4CCCCC4)nc3c2)c1 [Compound 182] | 5.89 | > 10 µM | ~6.92 µM | > 10 µM | – | – | – | – | –
COc1cc(OC)cc(N(CCO)c2ccc3ncc(C4CCN(C(=O)OC(C)(C)C)CC4)nc3c2)c1 [Compound 185] | <5 | > 10 µM | > 10 µM | > 10 µM | – | – | – | – | –
COCC(O)CN(c1cc(OC)cc(OC)c1)c1ccc2ncc(-c3cccnc3)nc2c1 (single isomer, unassigned) [Compound 46] | 6.49 | > 10 µM | > 10 µM | > 10 µM | – | – | – | – | –
COc1cc(OC)cc(N(CC#Cc2ncccc2OC)c2ccc3ncc(-c4cccnc4)nc3c2)c1 [Compound 183] | 6.76 | > 10 µM | > 10 µM | > 10 µM | – | – | – | – | –
COc1cc(OC)cc(N(CCNC(C)C)c2ccc3ncc(-c4ccn[nH]4)nc3c2)c1 [Compound 189] | 7.29 | > 10 µM | > 10 µM | – | – | – | – | – | –
COc1cc(OC)cc(N(CCNC(C)C)c2ccc3ncc(-c4ccnn4C4CCCCO4)nc3c2)c1 (stereo not shown) [Compound 188] | 6.46 | > 10 µM | > 10 µM | – | – | – | – | – | –

From patent publication US10052320B2, “Substituted quinoxalines as FGFR kinase inhibitors” (ASTEX THERAPEUTICS LIMITED, priority 2011, dated 2018)
